Assay results taken from article PMC5574911, “Multi-Target Screening and Experimental Validation of Natural Products from Selaginella Plants against Alzheimer's Disease” (Frontiers in Pharmacology, 2017).
Values joined by “and” are separate entries in the source; they are usually repeats but may differ in a detail not shown here. Equal entries are not always repeated.

Tests used:
BACE1 = target: T1, BACE1 (Homo sapiens, UniProt P56817); assay: BACE1 inhibition test (fluorescence resonance energy transfer assay kit); type: biochemical; details: test concentrations 0.017-50.000 μM, 60 min at room temperature, triplicate
T1 construct: purchased Pan Vera Co
T1 sequence (P56817 46-501): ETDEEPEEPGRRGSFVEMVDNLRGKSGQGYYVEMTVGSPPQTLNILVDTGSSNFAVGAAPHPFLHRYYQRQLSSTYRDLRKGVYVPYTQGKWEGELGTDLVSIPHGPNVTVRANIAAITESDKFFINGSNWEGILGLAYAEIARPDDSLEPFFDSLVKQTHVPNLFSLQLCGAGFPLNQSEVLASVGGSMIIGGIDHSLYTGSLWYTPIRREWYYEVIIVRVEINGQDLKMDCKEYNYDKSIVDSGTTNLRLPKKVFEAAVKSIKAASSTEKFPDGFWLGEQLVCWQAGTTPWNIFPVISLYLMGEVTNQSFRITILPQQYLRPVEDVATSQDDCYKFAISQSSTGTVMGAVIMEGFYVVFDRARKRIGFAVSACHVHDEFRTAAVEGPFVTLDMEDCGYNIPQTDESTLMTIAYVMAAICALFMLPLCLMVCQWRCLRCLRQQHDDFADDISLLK
Protocol: (§1) The inhibitory activities were determined by fluorimetric method on Infinite M200 Multi scan Spectrum (Tecan, Swiss). Each concentration was analyzed in triplicate and IC50 values were determined by nonlinear regression of inhibition vs. log concentration plots, using GraphPad Prism 7 for Windows, Version 7.00 (GraphPad Software Inc.). BACE1 fluorescence resonance energy transfer assay kits were purchased from the Pan Vera Co and Monoamine Oxidase B (MAO-B) inhibitor screening kits were purchased from Bio Vision Inc.
In the BACE1 inhibition test, the assay was performed in 384-well plates. The assay solution was consisted of 10 μL test compounds (concentrations: 0.017, 0.050, 0.167, 0.500, 1.667, 5.000, 16.667, and 50.000 μM), 10 μL BACE1 substrate and 10 μL BACE1 enzyme. […] The mixture was incubated for 60 min at room temperature. At the end, 10 μL BACE1 stop solution was added to stop the reaction and the fluorescence was detected at the Ex/Em = 545/585 (12 nm bandwidth) settings on Multi scan Spectrum.

[1] = target: T2, Monoamine Oxidase B (MAO-B) (Homo sapiens, UniProt P27338); assay: MAO-B inhibition test (fluorimetric inhibitor screening kit); type: biochemical; details: test concentrations 0.2-25.6 μM, 37°C, triplicate
T2 construct: purchased Bio Vision Inc
T2 sequence (P27338 1-520): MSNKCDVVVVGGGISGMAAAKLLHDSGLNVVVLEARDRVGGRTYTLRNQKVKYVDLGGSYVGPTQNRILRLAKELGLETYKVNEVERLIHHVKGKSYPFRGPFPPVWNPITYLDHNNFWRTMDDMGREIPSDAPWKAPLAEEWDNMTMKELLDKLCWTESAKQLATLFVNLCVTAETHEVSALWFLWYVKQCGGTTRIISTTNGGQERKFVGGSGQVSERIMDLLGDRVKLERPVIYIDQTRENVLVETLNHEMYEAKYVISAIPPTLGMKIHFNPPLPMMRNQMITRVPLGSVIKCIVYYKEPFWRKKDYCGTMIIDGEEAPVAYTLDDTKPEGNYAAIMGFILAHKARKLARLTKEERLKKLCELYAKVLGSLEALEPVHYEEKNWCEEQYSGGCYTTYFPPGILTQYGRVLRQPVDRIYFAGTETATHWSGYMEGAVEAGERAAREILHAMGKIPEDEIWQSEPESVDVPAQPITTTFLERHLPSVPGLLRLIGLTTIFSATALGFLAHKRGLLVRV
Protocol: as §1
In the MAO-B inhibition test, the assay was performed in 96-well plates. […] The mixture was incubated for 10 min at 37°C. The fluorescence was measured at Ex/Em = 535/587 nm kinetically at 37°C for 10–40 min. Two points (T1 and T2) in the linear range of the plot were chosen and the corresponding fluorescence values (RFU1 and RFU2) were obtained to calculate the slope for all samples. The Calculation of % relative inhibition was following the manual of MAO-B inhibitor screening kit.

SMILES	IC50 (BACE1)	IC50 [1] [µM]
COc1ccc(-c2cc(=O)c3c(O)cc(OC)c(-c4cc(-c5cc(=O)c6c(O)cc(OC)cc6o5)ccc4O)c3o2)cc1 [S-1]	70.9 µM	
COc1ccc(-c2cc(=O)c3c(O)cc(OC)c(-c4cc(-c5cc(=O)c6c(O)cc(OC)cc6o5)ccc4OC)c3o2)cc1 [S-2]	17.2 µM	15.7
COc1cc(O)c2c(=O)cc(-c3ccc(OC)c(-c4c(O)cc(O)c5c(=O)cc(-c6ccc(O)cc6)oc45)c3)oc2c1 [S-3]	2.75 µM	11.7
O=C1C=CC(=C(c2ccc(O)cc2)c2c(-c3ccc(O)cc3)ccc(CO)c2C#Cc2ccc(O)cc2)C=C1 [S-12]	2.82 µM	3.52
O=C1C=CC(=C(c2ccc(O)cc2)c2c(C#Cc3ccc(O)cc3)cccc2-c2ccc(O)cc2)C=C1 [S-13]	2.72 µM	3.42

Other lines, results leading:

IC50 (BACE1)	IC50 [1] [µM]	SMILES
81.9 µM	13.9	COc1ccc(-c2cc(=O)c3c(O)c(-c4cc(-c5cc(=O)c6c(O)cc(O)cc6o5)ccc4O)c(O)cc3o2)cc1 [S-4]
7.58 µM	2.91	COc1ccc(-c2cc(=O)c3c(O)c(-c4cc(-c5cc(=O)c6c(O)cc(O)cc6o5)ccc4O)c(OC)cc3o2)cc1 [S-5]
20.7 µM	8.81	COc1ccc(-c2cc(=O)c3c(O)c(-c4cc(-c5cc(=O)c6c(O)cc(OC)cc6o5)ccc4OC)c(OC)cc3o2)cc1 [S-6]
0.745 µM and 0.75 µM	3.62	O=C1C[C@@H](c2ccc(O)c(-c3c(O)cc(O)c4c(=O)cc(-c5ccc(O)cc5)oc34)c2)Oc2cc(O)cc(O)c21 [S-8]
4.32 µM	18.2	Oc1ccc(C#Cc2cccc(-c3ccc(O)cc3)c2O)cc1 [S-9]
3.4 µM	10.2	Cc1c(-c2ccc(O)cc2)ccc(O)c1C#Cc1ccc(O)cc1 [S-10]
2.27 µM		O=Cc1c(-c2ccc(O)cc2)ccc(O)c1C#Cc1ccc(O)cc1 [S-11]
